Source: ChEMBL document CHEMBL1201862, “PubChem BioAssay data set” (2004)
One block for each molecule: values may come before it. Activity calls are given as the source filed them.

How the values were obtained:
[1] = target: T1, Probable nicotinate-nucleotide adenylyltransferase (Staphylococcus aureus (strain N315), UniProt P65502); format: functional, Staphylococcus aureus subsp. aureus N315; conditions: read-out: IC50_Mean;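 for IC50 Mean: confirmatory dose-response retesting of NadD inhibitor hits first found in an ultra-high-throughput screen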
[2] = target: T1, Probable nicotinate-nucleotide adenylyltransferase; format: functional, Staphylococcus aureus subsp. aureus N315
cells [3] = format: functional, cell-based
cells [4] = format: functional, cell-based; remark: listed apart in the source
[5] = target: T2, RNA-binding protein pos-1 (Caenorhabditis elegans, UniProt G5EF15); test: disruptors of C. elegans POS-1 RNA interaction – biochemical, fluorescence polarization, dose response (AID 1964);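 note: purified POS-1 fused to maltose binding protein made in E. coli; potency of compounds blocking POS-1 binding to fluorescent RNA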
T2 sequence (G5EF15 whole entry): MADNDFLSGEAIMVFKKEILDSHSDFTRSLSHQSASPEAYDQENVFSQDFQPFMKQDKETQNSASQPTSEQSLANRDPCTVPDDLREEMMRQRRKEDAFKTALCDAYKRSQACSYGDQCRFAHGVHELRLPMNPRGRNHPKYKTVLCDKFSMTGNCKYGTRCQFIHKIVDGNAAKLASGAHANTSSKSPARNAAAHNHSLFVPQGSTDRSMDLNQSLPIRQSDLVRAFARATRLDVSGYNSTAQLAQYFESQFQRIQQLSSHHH

[6] = target: T3, Zinc finger protein mex-5 (Caenorhabditis elegans, UniProt Q9XUB2); test: potency of MEX-5 RNA-binding blockers – biochemical, C. elegans, fluorescence polarization, dose response (AID 1960)
T3 sequence (Q9XUB2 whole entry): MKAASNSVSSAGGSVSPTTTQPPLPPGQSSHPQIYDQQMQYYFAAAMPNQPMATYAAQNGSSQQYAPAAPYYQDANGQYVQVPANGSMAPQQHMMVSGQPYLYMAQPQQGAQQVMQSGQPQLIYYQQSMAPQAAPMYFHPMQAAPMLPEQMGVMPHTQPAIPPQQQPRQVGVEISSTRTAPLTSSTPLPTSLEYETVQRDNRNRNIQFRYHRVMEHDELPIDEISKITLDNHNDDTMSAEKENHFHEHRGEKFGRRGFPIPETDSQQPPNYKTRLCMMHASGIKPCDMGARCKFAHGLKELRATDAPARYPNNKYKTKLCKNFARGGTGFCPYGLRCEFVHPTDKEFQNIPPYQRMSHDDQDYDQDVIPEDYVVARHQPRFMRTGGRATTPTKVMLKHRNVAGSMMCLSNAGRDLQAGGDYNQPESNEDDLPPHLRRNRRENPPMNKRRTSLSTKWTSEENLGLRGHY

[7] = target: T4, Low molecular weight phosphotyrosine protein phosphatase (Homo sapiens, UniProt P24666); format: functional; conditions: read-out: IC50_Mean;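 note: Dose-response confirmation assay measuring inhibition of LMPTP enzyme activity by fluorescence intensity read-out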
T4 sequence (P24666 whole entry): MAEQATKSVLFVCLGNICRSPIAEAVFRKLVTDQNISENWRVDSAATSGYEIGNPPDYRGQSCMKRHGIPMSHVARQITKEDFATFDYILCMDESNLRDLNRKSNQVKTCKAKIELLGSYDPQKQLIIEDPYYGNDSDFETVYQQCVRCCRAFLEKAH

[8] = target: T5, Microphthalmia-associated transcription factor (Homo sapiens, UniProt O75030); test: reducers of TRPM1 reporter luminescence, concentration series – cell-based, SK-MEL-5, cherry-picked, set 3, MITF inhibitor project, dose response (AID 493073); format: functional;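 note: SK-MEL-5 melanoma cells with luciferase driven by the MITF target TRPM1 promoter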
T5 sequence (O75030 whole entry): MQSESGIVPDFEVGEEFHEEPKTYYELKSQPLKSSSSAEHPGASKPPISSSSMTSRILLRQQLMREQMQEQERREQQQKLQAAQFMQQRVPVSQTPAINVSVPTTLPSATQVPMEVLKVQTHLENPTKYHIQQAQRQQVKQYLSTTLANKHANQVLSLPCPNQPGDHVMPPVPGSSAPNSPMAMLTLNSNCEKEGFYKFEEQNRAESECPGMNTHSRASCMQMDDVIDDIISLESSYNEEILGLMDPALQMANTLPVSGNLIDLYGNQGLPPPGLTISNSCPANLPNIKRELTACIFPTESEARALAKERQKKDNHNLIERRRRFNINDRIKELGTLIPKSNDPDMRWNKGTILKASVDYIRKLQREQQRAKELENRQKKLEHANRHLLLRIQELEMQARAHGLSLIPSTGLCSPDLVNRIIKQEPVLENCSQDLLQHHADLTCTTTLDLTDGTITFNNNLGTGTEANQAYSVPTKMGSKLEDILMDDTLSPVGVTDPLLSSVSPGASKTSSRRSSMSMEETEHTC

[9] = target: 72 kDa type IV collagenase (Homo sapiens, UniProt P08253); test: Dose Response validation of uHTS RPN11 inhibitor hits using a MMP-2 Fluorescence assay.; format: functional
[10] = Trypanosoma cruzi growth suppression in host cells – NIH3T3 host cells, beta-gal luminescence, confirmation (AID 2044); format: functional, cell-based;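 note: intracellular parasites grown in NIH/3T3 mouse fibroblasts as host cells; luminescent beta-galactosidase reporter signal from transgenic T. cruzi replicating inside host cells; inhibitors lower the luminescence signal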
Prothrombin = Prothrombin (Bos taurus, UniProt P00735); test: thrombin protease inhibitors – biochemical, fluorescence polarization, uHTS hits, dose response (AID 602369); format: functional
[11] = viability of HCT116 lacking mutant beta-catenin – cell-based, human colon tumor, dose response (AID 1045); format: functional;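 note: HCT116 colon tumor cells with beta catenin knocked out; cells exposed to compound for 60 hours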
[12] = NIH3T3 cell viability loss – ATP luminescence, mouse fibroblasts, counter-screen, dose response (AID 2010); format: functional, cell-based;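 note: cells exposed to compound for about 90 hours before reading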
Cytochrome P450 3A4 = Cytochrome P450 3A4 (Homo sapiens, UniProt P08684);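 note: CYP3A4 tested as one member of a cytochrome P450 panel screen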
Cytochrome P450 2C19 = Cytochrome P450 2C19 (Homo sapiens, UniProt P33261); test: Cytochrome panel assay with activity outcomes. Panel member name: p450-cyp2c19 Compounds with AC50 equal or less than 10 uM are considered active; format: functional; conditions: read-out: AC50
[13] = viability of PTEN-deleted HCT116 cells – cell-based, HCT116 PTEN knockout, dose response (AID 1047); format: functional;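 note: HCT116 colon tumor cells with PTEN knocked out; cells exposed to compound for 60 hours before readout; potency for loss of cell viability measured by luminescence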
[14] = target: 26S proteasome non-ATPase regulatory subunit 14 (Homo sapiens, UniProt O00487); test: inhibition of proteasome subunit RPN11 – biochemical, fluorescence polarization, uHTS hits, confirmation (AID 602368); format: functional
26S proteasome non-ATPase regulatory subunit 14, sequence (O00487 whole entry): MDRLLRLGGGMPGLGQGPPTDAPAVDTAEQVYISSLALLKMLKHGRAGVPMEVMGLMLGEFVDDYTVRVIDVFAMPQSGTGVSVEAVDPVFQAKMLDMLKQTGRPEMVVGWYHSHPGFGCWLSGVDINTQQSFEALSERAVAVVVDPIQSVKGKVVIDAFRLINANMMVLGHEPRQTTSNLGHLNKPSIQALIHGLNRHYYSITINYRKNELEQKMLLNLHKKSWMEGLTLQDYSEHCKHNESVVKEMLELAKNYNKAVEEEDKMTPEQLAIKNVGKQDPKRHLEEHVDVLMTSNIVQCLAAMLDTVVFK

Cytochrome P450 3A4, sequence (P08684 whole entry): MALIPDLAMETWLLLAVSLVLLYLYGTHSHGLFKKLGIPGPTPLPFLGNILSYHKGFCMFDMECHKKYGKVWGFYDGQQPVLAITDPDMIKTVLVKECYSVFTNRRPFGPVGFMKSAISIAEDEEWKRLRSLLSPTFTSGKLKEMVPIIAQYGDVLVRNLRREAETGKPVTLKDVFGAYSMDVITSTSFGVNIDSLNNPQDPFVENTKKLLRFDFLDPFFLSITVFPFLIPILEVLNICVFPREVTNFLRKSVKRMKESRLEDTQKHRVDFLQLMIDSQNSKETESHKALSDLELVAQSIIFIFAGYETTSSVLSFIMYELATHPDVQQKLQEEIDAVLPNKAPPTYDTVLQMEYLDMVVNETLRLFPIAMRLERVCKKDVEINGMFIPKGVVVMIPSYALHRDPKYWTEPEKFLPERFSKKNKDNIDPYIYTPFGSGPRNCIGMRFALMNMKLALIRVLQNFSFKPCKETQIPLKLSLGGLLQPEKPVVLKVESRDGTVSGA
Cytochrome P450 2C19, sequence (P33261 whole entry): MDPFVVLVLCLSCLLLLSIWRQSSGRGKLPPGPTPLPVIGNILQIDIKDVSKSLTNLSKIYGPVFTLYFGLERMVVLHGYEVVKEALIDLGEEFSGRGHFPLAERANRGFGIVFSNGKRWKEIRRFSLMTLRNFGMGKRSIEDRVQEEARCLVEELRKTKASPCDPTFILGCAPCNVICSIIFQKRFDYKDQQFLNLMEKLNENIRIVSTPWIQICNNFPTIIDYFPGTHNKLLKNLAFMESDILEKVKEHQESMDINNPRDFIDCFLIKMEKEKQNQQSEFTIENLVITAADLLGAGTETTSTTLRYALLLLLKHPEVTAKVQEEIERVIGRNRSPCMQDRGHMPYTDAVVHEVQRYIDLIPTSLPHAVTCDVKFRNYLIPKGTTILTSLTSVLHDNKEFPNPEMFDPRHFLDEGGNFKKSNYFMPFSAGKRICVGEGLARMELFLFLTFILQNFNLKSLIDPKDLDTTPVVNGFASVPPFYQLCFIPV
72 kDa type IV collagenase, sequence (P08253 whole entry): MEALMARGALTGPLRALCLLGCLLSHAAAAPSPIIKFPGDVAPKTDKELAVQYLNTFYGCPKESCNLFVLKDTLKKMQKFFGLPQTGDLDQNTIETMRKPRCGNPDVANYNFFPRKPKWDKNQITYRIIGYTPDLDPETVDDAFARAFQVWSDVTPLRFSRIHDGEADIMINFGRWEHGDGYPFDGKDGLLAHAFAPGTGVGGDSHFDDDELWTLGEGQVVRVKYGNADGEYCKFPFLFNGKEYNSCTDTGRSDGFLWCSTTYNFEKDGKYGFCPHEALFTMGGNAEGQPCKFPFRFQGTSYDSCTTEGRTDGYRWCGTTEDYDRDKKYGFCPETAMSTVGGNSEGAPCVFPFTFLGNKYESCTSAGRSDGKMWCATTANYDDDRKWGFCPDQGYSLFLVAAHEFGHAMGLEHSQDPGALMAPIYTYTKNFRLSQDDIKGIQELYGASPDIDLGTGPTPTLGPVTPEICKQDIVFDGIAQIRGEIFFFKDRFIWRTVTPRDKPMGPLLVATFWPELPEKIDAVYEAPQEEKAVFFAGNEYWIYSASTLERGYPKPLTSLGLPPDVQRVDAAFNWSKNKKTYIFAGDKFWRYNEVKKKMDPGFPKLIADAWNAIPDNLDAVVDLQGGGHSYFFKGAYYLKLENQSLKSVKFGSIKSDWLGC

Compound: O=C(NCCc1ccccc1)Oc1ccc(Cl)cc1
EC50 (cells [3]): > 29.9 µM (inactive)
IC50 (cells [4]): > 29.9 µM (inactive)

Compound: COC(=O)CCCC1=CC2=CC(=O)C(C)(OC(=O)CCc3ccccc3)C(=O)C2=CO1 (stereo not drawn)
IC50 [1]: 14.2 µM (active)
IC50 [2]: 5.76 µM (active)
EC50 [5]: 30.9 µM (active)
EC50 [6]: 26.7 µM (active)

Compound: Cc1cc2ncn(/N=C/c3ccc([N+](=O)[O-])o3)c2cc1C
AC50 [8]: 21.9 µM (active)
IC50 [9]: > 100 µM (inactive)
EC50 [10]: 0.195 µM (active)
IC50 (Prothrombin): 51.4 µM (active)
EC50 [11]: 5.7 µM (active)
EC50 [12]: 15.5 µM (active)
AC50 (Cytochrome P450 3A4): 15.8 µM (inconclusive)
AC50 (Cytochrome P450 2C19): 1.12 µM (inconclusive)
EC50 [13]: 6.44 µM (active)
IC50 [14]: 73.6 µM (active)

Compound: CCCCC1=CC2=CC(=O)C(C)(OC(=O)CC)C(=O)C2=CO1 (stereo not drawn)
IC50 [1]: 24 µM (active)
IC50 [2]: 9.32 µM (active)
EC50 [5]: 27.8 µM (active)
EC50 [6]: 21.6 µM (active)

The next lines start with the values.

IC50 [1]: 74.3 µM (active)
IC50 [2]: 22.5 µM (active)
Compound: O=C(N/N=C/C=C\c1ccccc1[N+](=O)[O-])c1cc(-c2ccc3ccccc3c2)[nH]n1

IC50 [7]: 27.3 µM (inactive)
Compound: Cc1cc(N2CCN(C(C(=O)NC3CCCC3)c3ccco3)CC2)c2ccccc2n1 (stereo not drawn)
